For 23 compounds, TGI and GI50 results are on record in PubChem BioAssay (NCI).

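Protocol summary: plate cells (96-well), add compound at 5 concentrations, incubate 48 h, interpolate endpoints linearly. The concentration for 50% growth inhibition is given as GI50. TGI is the concentration that stops growth completely.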

Among the test systems are SF-539 CNS; MALME-3M melanoma; 786-0 renal; SK-OV-3 ovarian; SNB-19 CNS; TK-10 renal; HOP-62 NSCLC; HCT-116 colon.
Holding throughout (test): NCI-60 cell line screen, 48 h

In the case of `COc1cc2c(cc1OC)[C@@H](C(O)c1ccccc1)NCC2` (stereo partly specified), the TGI with SF-539 CNS, in the assay with MALME-3M melanoma, with 786-0 renal, in the assay with SK-OV-3 ovarian, with SNB-19 CNS and in the assay on TK-10 renal was more than 100 µM each time. Moreover, the TGI with HOP-62 NSCLC and in the assay on HCT-116 colon was more than 100 µM each time.
For the compound `CC[O-].CC[O-].O=Nc1ccc2cc([O-])ccc2c1.O=Nc1ccc2cc([O-])ccc2c1.[Ti+4]`, the GI50 with SF-539 CNS is 1.82 µM; with MALME-3M melanoma, 1.69 µM; in the assay on 786-0 renal, 1.61 µM; with SK-OV-3 ovarian, 14.6 µM; in the assay with SNB-19 CNS it was 3.61 µM; in the assay with TK-10 renal, 3.67 µM. Further, the GI50 was 3.3 µM in the assay on HOP-62 NSCLC and 1.77 µM with HCT-116 colon. Further, the TGI is 3.28 µM in the assay on SF-539 CNS; 3.06 µM with MALME-3M melanoma; 3.05 µM with 786-0 renal; 20 µM in the assay with SK-OV-3 ovarian; 13.2 µM in the assay on SNB-19 CNS; 8.17 µM in the assay on TK-10 renal. The values for the TGI with HOP-62 NSCLC and in the assay on HCT-116 colon were 10.5 µM and 3.22 µM, respectively.
On to `COc1ccc(/C=C2\CNC/C(=C\c3ccc(OC)cc3)C2=O)cc1`, for which the TGI with SF-539 CNS was 41.6 µM; with MALME-3M melanoma, more than 100 µM; in the assay with 786-0 renal, more than 100 µM; in the assay on SK-OV-3 ovarian it was more than 100 µM; in the assay with SNB-19 CNS it was more than 100 µM; with TK-10 renal it was more than 100 µM. For the same compound, the TGI in the assay with HOP-62 NSCLC was more than 100 µM; with HCT-116 colon, 13 µM.
For `COc1ccc(C=NC23CC4CC(CC(C4)C2)C3)cc1`, the TGI in the assay on SF-539 CNS, in the assay on MALME-3M melanoma, in the assay on 786-0 renal, in the assay with SK-OV-3 ovarian, in the assay with SNB-19 CNS and in the assay with TK-10 renal was more than 100 µM throughout. In addition, the TGI in the assay with HOP-62 NSCLC and in the assay with HCT-116 colon was more than 100 µM each time.
For the compound `CN(C)c1ccc(/C=C2\N=C(c3ccc(N)cc3)OC2=O)cc1`, the TGI with SF-539 CNS, in the assay on MALME-3M melanoma, with 786-0 renal, in the assay on SK-OV-3 ovarian, in the assay on SNB-19 CNS and in the assay with TK-10 renal was more than 100 µM each time. Further, in the assay on HOP-62 NSCLC, the TGI is more than 100 µM.
Consider `CCN(CC)C(=S)N/N=C(\C)c1ccccc1O`, for which the TGI with SF-539 CNS was 54.4 µM; in the assay on MALME-3M melanoma, more than 100 µM; with 786-0 renal it was more than 100 µM; in the assay on SK-OV-3 ovarian it was 79 µM; in the assay with SNB-19 CNS, more than 100 µM; with TK-10 renal it was more than 100 µM. For the same compound, the TGI in the assay on HOP-62 NSCLC is more than 100 µM.
As to `COc1ccc2nc(NC(=O)C(=O)CC(=O)c3ccc(Cl)cc3)sc2c1`, the TGI in the assay with SF-539 CNS is 98.4 µM; in the assay with MALME-3M melanoma, more than 100 µM; with 786-0 renal, more than 100 µM; with SK-OV-3 ovarian, more than 100 µM; in the assay with SNB-19 CNS, more than 100 µM; with TK-10 renal, more than 100 µM. Further, the TGI in the assay with HOP-62 NSCLC and with HCT-116 colon was more than 100 µM throughout.
Consider `Cc1c(C(=O)CC(=O)C(=O)Nc2cccc(C(F)(F)F)c2)[n+](=O)c2ccccc2n1[O-]`, for which the TGI was 8.58 µM with SF-539 CNS; 13.3 µM in the assay with MALME-3M melanoma; 21.5 µM in the assay with 786-0 renal; 50.2 µM in the assay on SK-OV-3 ovarian; 19.9 µM in the assay with SNB-19 CNS; 79.7 µM in the assay on TK-10 renal. Besides, the TGI in the assay on HOP-62 NSCLC was 57.6 µM; in the assay on HCT-116 colon, 10.2 µM.
Regarding `CC(C)(C)C(=O)C(c1ccc(-c2cscn2)cc1)c1ccc(-c2cscn2)cc1`, the TGI with SF-539 CNS was more than 56.3 µM; with MALME-3M melanoma it was more than 100 µM; with 786-0 renal, 78.7 µM; in the assay on SK-OV-3 ovarian, 65.3 µM; in the assay with SNB-19 CNS it was more than 69.7 µM; with TK-10 renal, 92 µM. Also, the TGI with HOP-62 NSCLC is 40.6 µM; in the assay on HCT-116 colon, more than 100 µM.
`CC(=O)O[C@@H]1CC(C)C2CC2C2=C(C(O)OC2O)[C@@H]1C(C)CCC=C(C)C` (stereo partly specified): the TGI amounted to 34.2 µM with SF-539 CNS; 67 µM in the assay on MALME-3M melanoma; 40.3 µM with 786-0 renal; 99.5 µM in the assay with SNB-19 CNS; 90 µM in the assay with TK-10 renal; 56 µM with HOP-62 NSCLC. The compound also yielded a TGI in the assay with HCT-116 colon of 32.7 µM.
As to `Cc1cc2c(c(C#N)c1C)NC(=O)C(CC(=O)O)C2=O` (stereo unspecified), the TGI in the assay on SF-539 CNS, with MALME-3M melanoma, in the assay on 786-0 renal, with SK-OV-3 ovarian, with TK-10 renal and in the assay on HOP-62 NSCLC was more than 100 µM throughout. This compound also gave a TGI with HCT-116 colon of more than 100 µM.
Consider `Cc1cccc(C)c1NC(=O)C(=O)CC(=O)CO`, for which the TGI with SF-539 CNS, in the assay on MALME-3M melanoma, with 786-0 renal, with SK-OV-3 ovarian, in the assay on SNB-19 CNS and in the assay on TK-10 renal was more than 100 µM each time. Also, the TGI in the assay on HOP-62 NSCLC and in the assay with HCT-116 colon was more than 100 µM each time.
With `O=C(c1ccc(NCN2C(=O)CCC2=O)cc1)c1ccc(NCN2C(=O)CCC2=O)cc1`, the TGI in the assay with SF-539 CNS, in the assay with MALME-3M melanoma, in the assay with 786-0 renal, in the assay on SNB-19 CNS, with TK-10 renal and in the assay on HOP-62 NSCLC was more than 100 µM each time. Moreover, the TGI in the assay on HCT-116 colon was more than 100 µM.
`O=C(O)c1ccc([N+](=O)[O-])c2c(=O)c3ccccc3[nH]c12`: the TGI in the assay on SF-539 CNS, in the assay on MALME-3M melanoma, in the assay on 786-0 renal, with SK-OV-3 ovarian, in the assay on SNB-19 CNS and in the assay with HOP-62 NSCLC was more than 100 µM each time. Further, the TGI with HCT-116 colon is more than 100 µM.
For the compound `C=CCN=C1N=C(CC(=O)OCC)CS1`, the TGI with SF-539 CNS, with MALME-3M melanoma, with 786-0 renal, in the assay with SK-OV-3 ovarian, in the assay on SNB-19 CNS and in the assay with TK-10 renal was more than 100 µM throughout. Further, the TGI in the assay with HOP-62 NSCLC and in the assay on HCT-116 colon was more than 100 µM each time.
For the compound `Cc1ccc(C2=Nc3ccccc3NC(=O)C2)cc1`, the TGI in the assay on SF-539 CNS, in the assay with MALME-3M melanoma, in the assay on 786-0 renal, in the assay on SK-OV-3 ovarian, in the assay with SNB-19 CNS and in the assay on TK-10 renal was more than 100 µM in each case. Moreover, the TGI with HOP-62 NSCLC and in the assay with HCT-116 colon was more than 100 µM each time.
For the compound `CNS(=O)(=O)NN(C)S(=O)(=O)c1ccc(Br)cc1`, the TGI with SF-539 CNS, with MALME-3M melanoma, in the assay on 786-0 renal, with SNB-19 CNS, in the assay on TK-10 renal and with HOP-62 NSCLC was more than 100 µM each time. Moreover, the TGI in the assay with HCT-116 colon is more than 100 µM.
For the compound `CC(=O)OC[C@@H]1[C@H]2CC(=O)O[C@H]2C[C@H]1OC(C)=O`, the TGI in the assay with SF-539 CNS, with MALME-3M melanoma, in the assay with 786-0 renal, in the assay on SK-OV-3 ovarian, in the assay on SNB-19 CNS and in the assay on TK-10 renal was more than 100 µM throughout. Besides, the TGI in the assay with HOP-62 NSCLC and in the assay with HCT-116 colon was more than 100 µM throughout.
On to `O=C1NC2(O)c3ccccc3C(=O)C2(O)N1c1ccccc1` (stereo unspecified), for which the TGI in the assay with SF-539 CNS, with MALME-3M melanoma, with 786-0 renal, in the assay with SK-OV-3 ovarian, in the assay on SNB-19 CNS and in the assay with TK-10 renal was more than 100 µM in each case. In addition, in the assay on HCT-116 colon, the TGI is more than 100 µM.
In the case of `CCOC(=O)NC(=O)c1cn(CCCOC(=O)CCCCCCCCC(=O)OCCCn2cc(C(=O)NC(=O)OCC)c(=O)[nH]c2=O)c(=O)[nH]c1=O`, the TGI in the assay with SF-539 CNS was 82.1 µM; in the assay on 786-0 renal, 84.5 µM; in the assay with SK-OV-3 ovarian, more than 100 µM; with SNB-19 CNS, 57.4 µM; with TK-10 renal it was 57.9 µM; in the assay on HOP-62 NSCLC it was more than 100 µM. In the assay with HCT-116 colon, this compound gave a TGI of more than 100 µM.
Consider `O=Cc1[nH]c2ccccc2c1Br`, for which the TGI in the assay on SF-539 CNS came to 34.5 µM; in the assay on MALME-3M melanoma it was 45.1 µM; in the assay on 786-0 renal, 66.3 µM; with SK-OV-3 ovarian, 44.9 µM; with SNB-19 CNS, 67.2 µM; with TK-10 renal, 74.3 µM. Further, the figures for the TGI in the assay on HOP-62 NSCLC and with HCT-116 colon were 40.6 µM and 38.1 µM, respectively.
On to `O=C(N/N=C/c1cc(Br)cc(Br)c1[O-])c1ccccc1O.O=C(N/N=C/c1cc(Br)cc(Br)c1[O-])c1ccccc1O.[Mn+2]`, for which the TGI in the assay on SF-539 CNS amounted to 5.56 µM; in the assay on MALME-3M melanoma, 16.6 µM; in the assay on 786-0 renal, 15.9 µM; in the assay with SK-OV-3 ovarian, 33.8 µM; with SNB-19 CNS, 36 µM; in the assay on TK-10 renal, 31 µM. Also, the TGI with HOP-62 NSCLC is 25.9 µM; with HCT-116 colon, 7.36 µM. In addition, the GI50 in the assay on 786-0 renal is 0.887 µM.
As to `N#CC1(c2nc3ccccc3o2)C(=O)C(=O)N(c2ccc(Cl)c(Cl)c2)C(=O)C1=O`, the TGI in the assay with MALME-3M melanoma, in the assay on 786-0 renal, in the assay on SNB-19 CNS, in the assay with TK-10 renal and with HOP-62 NSCLC was more than 100 µM throughout.
